Data as given in patent publication US6451851B1, “Pharmaceutical composition with antiviral activity containing an hydroxymic acid derivative and an antiviral agent” (N-Gene Research Laboratories Inc., priority 1997, dated 2002).

Target: T1, Recombinant M-MuLV reverse transcriptase (Moloney murine leukemia virus, UniProt P03355)
T1 construct: Recombinant M-MuLV reverse transcriptase was purchased from New England Biolabs, USA; purchased New England Biolabs
Assay: Inhibition of M-MuLV reverse transcriptase activity ((3H)dTTP incorporation)
Type: biochemical
Method: The enhanced antiviral effect of the pharmaceutical composition of the invention was investigated by testing the inhibitory effect thereof on reverse transcriptase activity of Moloney murine virus(M-MuLV). Recombinant M-MuLV reverse transcriptase was purchased from New England Biolabs, USA. Measurement of the activity was carried out by investigating the poli(rA)noligo(dT)12-18 template-primer directed incorporation of (^3H)dTTP(Amersham) into the cDNS.
In each case, the final volume of the reaction mixture was 20 microliters. The composition of the reaction mixture was as follows:
2 microliters of 10× reverse transcriptase buffer,
20 microgram/ml template primer,
the test compound (dissolved in 1× reverse transcriptase buffer solution).
The composition of the 10× reverse transcriptase buffer (1 liter of solution contains the following substances):
500 mM tris-hydrochloride/tris (hydroxy-methyl)-amino-methan-hydrochloride/(pH=8,3),
300 mM potassium-chloride, and
100 mM DTT (dithiotreitol).
The test materials were AZT and compound “L” added separately or together. The reaction was initiated by adding 5U reverse transcriptase. The reaction mixture was incubated for 40 min at 37° C. Then, 15 microliters of reaction mixture was transferred to Whatman DE81 filter-paper disc, washed by 5% by mass of aqueous disodium-hydrogen-phosphate buffer, by water, and then with 96% by mass of ethanol. After drying, the discs were transferred into 5 ml of scintillation liquid (OptiPhase ‘HiSafe 3’, Wallac), and the radioactivity of samples was measured by a Packard Tri-Carb 2200 CE liquid scintillation counter. Enzymatic activity was calculated in percent from the experimental results.

| SMILES | activity at 0.1 µM (0.1 microM/ml AZT, control = 100) | activity at 0.2 µM (0.2 microM/ml AZT, control = 100) | inhibitory effect on M-MuLV reverse transcriptase (in words) (AZT by itself, in the concentrations applied) | Activity (%) (0.02 mg/ml compound “L”, control = 100) | Activity (%) (0.03 mg/ml compound “L”, control = 100) | inhibitory effect (compound “L” alone) |
| --- | --- | --- | --- | --- | --- | --- |
| Cc1cn([C@H]2C[C@H](N=[N+]=[N-])[C@@H](CO)O2)c(=O)[nH]c1=O [AZT, 3′-azido-3′-deoxythymidine] | 91% | 84% | only minor inhibitory effect | – | – | – |
| Cl.Cl.NC(=NOCC(O)CN1CCCCC1)c1cccnc1 (stereo not drawn) [compound “L”, 0-(3-piperidino-2-hydroxy-1-propyl)nicotinic acid amid-oxime dihydrochloride] | – | – | – | 75% | 74% | about 25% |
